Data as given in ChEMBL document CHEMBL1201862, “PubChem BioAssay data set” (2004).
Calls of active or inactive are those of the source. Cut-off read from the data, not from the text of the source, for most assays here: actives have a measured EC50 and inactives only a lower limit.

Columns and labels:
Cytochrome P450 2D6 = Cytochrome P450 2D6 (Homo sapiens, UniProt P10635);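 note: CYP2D6 member of a cytochrome P450 panel assay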
Cytochrome P450 3A4 = Cytochrome P450 3A4 (Homo sapiens, UniProt P08684);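 note: CYP3A4 tested as one member of a cytochrome P450 panel screen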
Cytochrome P450 3A4, sequence (P08684 whole entry): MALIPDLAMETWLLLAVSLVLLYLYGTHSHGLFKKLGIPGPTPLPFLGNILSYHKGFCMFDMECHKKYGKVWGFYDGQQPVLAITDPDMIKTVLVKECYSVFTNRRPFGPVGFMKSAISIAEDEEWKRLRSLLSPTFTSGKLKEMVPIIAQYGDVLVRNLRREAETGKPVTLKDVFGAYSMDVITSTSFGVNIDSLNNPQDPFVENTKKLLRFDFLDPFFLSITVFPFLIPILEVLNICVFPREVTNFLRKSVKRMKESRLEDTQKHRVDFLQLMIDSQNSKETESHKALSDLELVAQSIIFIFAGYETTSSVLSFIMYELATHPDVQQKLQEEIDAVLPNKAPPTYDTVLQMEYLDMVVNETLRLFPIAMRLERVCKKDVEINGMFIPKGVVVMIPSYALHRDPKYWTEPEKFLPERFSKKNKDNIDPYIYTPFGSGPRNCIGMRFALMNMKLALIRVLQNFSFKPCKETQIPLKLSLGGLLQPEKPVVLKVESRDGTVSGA

[1] = Shn3 3'UTR reporter inhibitors, dose response, cell-based, Clone20 osteoblasts, firefly luciferase, cherry-picked (AID 624132); type: functional;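 note: firefly luciferase luminescence from reporter carrying the Shn3 3'UTR in osteoblasts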
[2] = test system: Streptococcus sp. 'group A'; test: growth inhibition of control SK(-) GAS strain, dose response, counter-screen for streptokinase expression inhibitor project, luminescence, kanamycin, BacTiterGlo, confirmation (AID 1900); type: functional, organism-based
Streptokinase A = molecular target: T1, Streptokinase A (Streptococcus pyogenes serotype M1, UniProt P10520); test: S. pyogenes streptokinase expression inhibitors, potency, dose response, plasminogen activation absorbance, OD405 (AID 1914); type: functional, Streptococcus pyogenes M1 GAS;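 note: secreted streptokinase activity via plasminogen activation per viability signal from cell pellet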
T1 sequence (P10520 whole entry): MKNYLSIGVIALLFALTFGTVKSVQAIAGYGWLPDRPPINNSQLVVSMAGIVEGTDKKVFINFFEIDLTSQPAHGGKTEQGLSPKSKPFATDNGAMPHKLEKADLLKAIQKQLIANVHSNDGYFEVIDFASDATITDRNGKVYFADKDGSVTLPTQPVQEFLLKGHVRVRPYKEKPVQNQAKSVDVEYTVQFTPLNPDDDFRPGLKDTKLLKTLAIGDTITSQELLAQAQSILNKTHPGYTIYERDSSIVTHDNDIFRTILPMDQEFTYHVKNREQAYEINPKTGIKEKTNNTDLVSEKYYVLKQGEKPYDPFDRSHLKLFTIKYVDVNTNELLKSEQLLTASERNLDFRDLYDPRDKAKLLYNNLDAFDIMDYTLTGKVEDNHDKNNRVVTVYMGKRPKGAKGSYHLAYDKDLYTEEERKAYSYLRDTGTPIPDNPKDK

Streptococcus = test: Group A Streptococcus viability loss, dose response, counter-screen for streptokinase expression inhibitor project, luminescence, BacTiterGlo (AID 1915); type: functional, organism-based; settings: read-out: EC50;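 note: potency for reduction of bacterial viability or growth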
[3] = Luminescence Cell-Based Dose Retest to Confirm Inhibitors of Cancer Stem Cells. [Related pubchem assays (depositor defined):AID2717, AID2721]; type: functional; settings: Homo sapiens
[4] = molecular target: T2, Heat shock factor protein 1 (Mus musculus, UniProt P38532); test: inhibition of MG132-induced HSE-luciferase signal, confirmation, cell-based, NIH3T3, luminescence, dose retest (AID 2382); type: functional;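 note: NIH3T3 fibroblasts with HSF1-driven luciferase reporter stressed by proteasome inhibitor MG132; luminescence from HSF1-driven luciferase expression after 8 hours of MG132 stress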
T2 sequence (P38532 whole entry): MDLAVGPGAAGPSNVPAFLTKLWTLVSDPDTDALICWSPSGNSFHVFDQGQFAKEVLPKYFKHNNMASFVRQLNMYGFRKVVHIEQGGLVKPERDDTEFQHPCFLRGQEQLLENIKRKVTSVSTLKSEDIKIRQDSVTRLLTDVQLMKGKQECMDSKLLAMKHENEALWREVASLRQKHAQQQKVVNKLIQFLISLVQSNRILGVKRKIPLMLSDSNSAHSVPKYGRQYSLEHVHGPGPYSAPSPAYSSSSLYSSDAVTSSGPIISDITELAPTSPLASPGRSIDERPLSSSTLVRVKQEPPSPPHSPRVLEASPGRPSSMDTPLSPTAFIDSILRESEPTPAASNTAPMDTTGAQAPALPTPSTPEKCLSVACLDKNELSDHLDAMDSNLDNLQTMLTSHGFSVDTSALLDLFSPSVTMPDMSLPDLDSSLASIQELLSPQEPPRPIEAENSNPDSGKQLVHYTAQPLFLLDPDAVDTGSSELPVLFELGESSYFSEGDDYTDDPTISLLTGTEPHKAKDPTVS

[5] = molecular target: T3, Replicative DNA helicase DnaB (Mycobacterium tuberculosis, UniProt P9WMR3); test: DnaB intein splicing inhibitors, dose response, biochemical, cell-free fluorescence (AID 449749); type: functional
T3 sequence (P9WMR3 whole entry): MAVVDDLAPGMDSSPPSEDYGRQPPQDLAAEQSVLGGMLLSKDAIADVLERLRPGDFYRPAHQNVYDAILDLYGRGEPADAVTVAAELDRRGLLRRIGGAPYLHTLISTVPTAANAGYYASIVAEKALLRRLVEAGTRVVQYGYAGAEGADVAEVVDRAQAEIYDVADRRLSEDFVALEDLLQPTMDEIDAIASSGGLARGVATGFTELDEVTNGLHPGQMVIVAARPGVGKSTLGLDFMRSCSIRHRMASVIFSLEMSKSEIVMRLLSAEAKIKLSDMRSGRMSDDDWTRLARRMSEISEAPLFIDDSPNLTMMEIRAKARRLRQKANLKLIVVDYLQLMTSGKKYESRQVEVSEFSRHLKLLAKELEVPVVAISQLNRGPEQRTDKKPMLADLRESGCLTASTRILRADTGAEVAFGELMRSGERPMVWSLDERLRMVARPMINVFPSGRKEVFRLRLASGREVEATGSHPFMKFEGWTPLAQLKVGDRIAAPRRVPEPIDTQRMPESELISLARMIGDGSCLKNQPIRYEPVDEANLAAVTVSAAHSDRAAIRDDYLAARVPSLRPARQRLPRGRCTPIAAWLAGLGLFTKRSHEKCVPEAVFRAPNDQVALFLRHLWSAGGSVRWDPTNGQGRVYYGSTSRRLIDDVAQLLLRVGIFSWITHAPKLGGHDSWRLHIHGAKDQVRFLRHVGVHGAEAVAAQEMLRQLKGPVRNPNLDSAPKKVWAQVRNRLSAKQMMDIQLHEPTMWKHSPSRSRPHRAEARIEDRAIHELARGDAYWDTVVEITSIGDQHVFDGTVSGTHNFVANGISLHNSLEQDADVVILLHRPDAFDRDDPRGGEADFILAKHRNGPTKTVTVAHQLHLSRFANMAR

Protein RecA = molecular target: T4, Protein RecA (Mycobacterium tuberculosis, UniProt P9WHJ3); test: Fluorescence Cell-Free Homogeneous Dose Retest to Identify Inhibitors of RecA-Intein Splicing Activity. [Related pubchem assays (depositor defined):AID2097, AID2223, AID489010, AID492950]; type: functional
T4 sequence (P9WHJ3 whole entry): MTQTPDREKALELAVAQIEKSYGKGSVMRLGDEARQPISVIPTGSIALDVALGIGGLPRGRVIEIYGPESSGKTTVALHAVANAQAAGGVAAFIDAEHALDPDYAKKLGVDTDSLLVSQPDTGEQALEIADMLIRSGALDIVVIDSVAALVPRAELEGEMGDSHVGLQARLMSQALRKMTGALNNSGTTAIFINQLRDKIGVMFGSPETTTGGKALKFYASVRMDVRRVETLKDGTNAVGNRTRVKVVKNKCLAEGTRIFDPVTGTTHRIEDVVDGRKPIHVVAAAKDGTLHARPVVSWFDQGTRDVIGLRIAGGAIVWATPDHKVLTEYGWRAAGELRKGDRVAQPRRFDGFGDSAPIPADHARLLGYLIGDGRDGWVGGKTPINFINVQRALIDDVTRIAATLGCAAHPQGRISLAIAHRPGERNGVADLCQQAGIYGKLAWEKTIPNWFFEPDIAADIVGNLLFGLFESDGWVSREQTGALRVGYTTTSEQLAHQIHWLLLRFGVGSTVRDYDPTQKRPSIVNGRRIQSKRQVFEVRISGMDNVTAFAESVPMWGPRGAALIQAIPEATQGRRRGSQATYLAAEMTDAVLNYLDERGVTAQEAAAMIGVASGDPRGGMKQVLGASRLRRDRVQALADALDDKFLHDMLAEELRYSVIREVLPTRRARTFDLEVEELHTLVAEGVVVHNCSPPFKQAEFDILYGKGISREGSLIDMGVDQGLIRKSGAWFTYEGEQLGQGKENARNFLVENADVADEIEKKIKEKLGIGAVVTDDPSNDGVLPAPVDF

[6] = molecular target: T5, Corticotropin-releasing factor receptor 2/Corticotropin-releasing factor-binding protein (Homo sapiens, UniProt P24387+Q13324); test: activators of CRF receptor 2 with binding protein – uHTS hits, confirmation (AID 602473); type: functional; settings: read-out: EC50_Mean
T5 sequence (Q13324 whole entry): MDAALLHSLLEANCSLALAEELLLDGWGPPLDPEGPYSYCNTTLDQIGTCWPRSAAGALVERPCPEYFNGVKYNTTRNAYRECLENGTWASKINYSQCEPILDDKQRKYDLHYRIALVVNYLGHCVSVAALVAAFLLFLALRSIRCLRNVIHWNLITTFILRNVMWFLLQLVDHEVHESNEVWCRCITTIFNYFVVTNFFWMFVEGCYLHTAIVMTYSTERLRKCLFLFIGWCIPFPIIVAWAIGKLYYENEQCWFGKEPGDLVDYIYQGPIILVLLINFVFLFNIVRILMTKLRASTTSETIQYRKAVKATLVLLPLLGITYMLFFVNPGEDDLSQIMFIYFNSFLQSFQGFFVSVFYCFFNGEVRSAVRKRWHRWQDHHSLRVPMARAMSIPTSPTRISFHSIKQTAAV
T5 sequence (P24387 whole entry): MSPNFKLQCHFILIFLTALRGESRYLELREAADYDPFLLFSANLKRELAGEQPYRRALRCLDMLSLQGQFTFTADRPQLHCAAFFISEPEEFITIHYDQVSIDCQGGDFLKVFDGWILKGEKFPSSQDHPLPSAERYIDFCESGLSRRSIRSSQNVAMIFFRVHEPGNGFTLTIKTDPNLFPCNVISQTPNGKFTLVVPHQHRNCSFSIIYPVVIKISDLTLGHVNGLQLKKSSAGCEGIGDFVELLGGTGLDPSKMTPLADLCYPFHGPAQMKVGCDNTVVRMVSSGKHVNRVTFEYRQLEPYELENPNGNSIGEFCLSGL

Cytochrome P450 2D6, sequence (P10635 whole entry): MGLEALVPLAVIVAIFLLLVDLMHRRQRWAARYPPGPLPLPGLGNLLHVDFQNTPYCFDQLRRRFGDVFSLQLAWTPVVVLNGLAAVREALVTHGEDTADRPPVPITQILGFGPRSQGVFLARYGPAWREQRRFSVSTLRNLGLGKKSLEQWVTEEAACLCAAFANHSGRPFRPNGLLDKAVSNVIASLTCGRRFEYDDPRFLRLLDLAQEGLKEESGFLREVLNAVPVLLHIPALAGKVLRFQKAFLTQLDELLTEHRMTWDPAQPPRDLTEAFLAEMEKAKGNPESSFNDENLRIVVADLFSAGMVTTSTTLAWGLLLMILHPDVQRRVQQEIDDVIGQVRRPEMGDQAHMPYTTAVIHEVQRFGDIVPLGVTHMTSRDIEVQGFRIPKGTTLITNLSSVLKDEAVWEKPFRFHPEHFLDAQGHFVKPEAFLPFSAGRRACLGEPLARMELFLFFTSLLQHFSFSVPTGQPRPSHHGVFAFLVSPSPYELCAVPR

## C[C@]1(CC(=O)O)O[C@H]2CCCCC[C@H]2O1.NCc1ccccc1
Cytochrome P450 2D6
  AC50: 3.16 µM (inconclusive)
Cytochrome P450 3A4
  AC50: 0.251 µM (inconclusive)

## O=C(C1CCC(=O)N1Cc1ccccc1Cl)N1CCN(c2cccc(Cl)c2)CC1 (stereo not drawn)
Cytochrome P450 2D6
  AC50: 14.1 µM (inconclusive)
Cytochrome P450 3A4
  AC50: 0.0355 µM (inconclusive)

## C[C@]12CC[C@@H](O)C[C@@H]1CC[C@@H]1[C@@H]2CC[C@]2(C)C(=O)CC[C@@H]12 [ANDROSTERONE]
[1]
  AC50: 40.1 µM (active)

## c1ccc(-c2oc3ncnc(NCCCn4ccnc4)c3c2-c2ccccc2)cc1
[2]
  EC50: 23.4 µM (active)
Streptokinase A
  EC50: > 150 µM (not active)
Streptococcus
  EC50: > 150 µM (not active)

## Oc1nc(CN2CC=C(c3ccccc3)CC2)nc2scc(-c3ccccc3)c12
[2]
  EC50: 7.76 µM (active)
Streptokinase A
  EC50: > 150 µM (not active)
Streptococcus
  EC50: 50.3 µM (active)
[3]
  AC50: 2.56 µM (active)

## CCOc1cc(C(c2c(C)n[nH]c2O)c2c(C)n[nH]c2O)cc(Br)c1OC
[4]
  EC50: > 195 µM (not active)
[5]
  AC50: 0.417 µM (active)
Protein RecA
  EC50: 0.231 µM (active)

## Cc1cccc(Cc2cnc(NC(=O)c3ccc(C)o3)s2)c1
[2]
  EC50: 16.6 µM (active)
Streptokinase A
  EC50: > 150 µM (not active)
Streptococcus
  EC50: > 150 µM (not active)

## Cn1c(=O)c(C(=O)COc2ccc(C#N)cc2)c(N)n(Cc2ccccc2)c1=O
[6]
  EC50: 10.9 µM (active)

## CNC(C)(C)Cc1ccccc1 [MEPHENTERMINE]
Cytochrome P450 2D6
  AC50: 10 µM (inconclusive)

## O=C(NC1C(=O)NNC1c1ccc(Cl)cc1)c1ccc(F)cc1 (stereo not drawn)
[5]
  AC50: 13.1 µM (active)
Protein RecA
  EC50: 4.94 µM (active)

## Cc1cc(NC(=O)CC2CCCC2)n(-c2nc3ccccc3[nH]2)n1
[2]
  EC50: 6.41 µM (active)
Streptokinase A
  EC50: > 150 µM (not active)
Streptococcus
  EC50: > 150 µM (not active)

## CCN(CC)S(=O)(=O)c1ccc(NN=C(C#N)C#N)cc1
[5]
  AC50: 5.03 µM (active)
Protein RecA
  EC50: 15 µM (active)

## Cc1cc(C(=O)c2ccccc2)c(NC(=O)CCl)s1
[5]
  AC50: 14.2 µM (active)
Protein RecA
  EC50: 2.83 µM (active)

## Cc1onc(-c2ccccc2)c1C(=O)NCCc1c[nH]c2ccccc12
Cytochrome P450 2D6
  AC50: 12.6 µM (inconclusive)

## CC1=NNC(=O)C1C(c1cccc(O)c1)C(C#N)C#N (stereo not drawn)
[5]
  AC50: 28.3 µM (active)
Protein RecA
  EC50: 12.7 µM (active)

## O=C(/C=C/c1ccco1)NC(=S)Nc1ccc(N2CCOCC2)c(Cl)c1
[2]
  EC50: 109 µM (active)
Streptokinase A
  EC50: > 150 µM (not active)
Streptococcus
  EC50: 54.4 µM (active)

## O=C(Nc1ccccc1)c1ccccc1NC(=O)C(F)(F)F
[6]
  EC50: > 53 µM (inactive)

## CN1CCN(c2ncc3nc(-c4ccccc4)c(=O)n(CCc4ccccc4)c3n2)CC1
Cytochrome P450 2D6
  AC50: 39.8 µM (inconclusive)

## O=C(Nc1ccc(Cl)c(Cl)c1)N1CC=C(c2ccccc2)CC1
[2]
  EC50: 9.92 µM (active)
Streptokinase A
  EC50: 11.9 µM (active)
Streptococcus
  EC50: 21 µM (active)

## COc1ccc(C(=O)NNC(=O)c2cccc(S(=O)(=O)N3CCOCC3)c2)cc1
[1]
  AC50: 23.2 µM (active)

## COC(=O)[C@@]1(Cc2ccc(OC)cc2)[C@H]2c3cc(C(=O)N(C)C)n(Cc4ccc(C)o4)c3C[C@H]2CN1C(=O)c1ccccc1
Cytochrome P450 2D6
  AC50: 39.8 µM (inconclusive)

## Cc1cc(C)c(-c2cc(NC(=O)COC(=O)c3ccc(CO)cc3)n(-c3ccccc3)n2)cc1C
[2]
  EC50: 5.49 µM (active)
Streptokinase A
  EC50: 48.4 µM (active)
Streptococcus
  EC50: 32.4 µM (active)

## COc1ccc(-c2csc(Nc3ccc(O)cc3)n2)cc1
[5]
  AC50: 37.2 µM (active)
Protein RecA
  EC50: 123 µM (active)

## COc1ccc2cc(C(=O)NCc3ccccc3)/c(=N/c3ccc(C(=O)O)cc3)oc2c1
[2]
  EC50: 10.2 µM (active)
Streptokinase A
  EC50: > 150 µM (not active)
Streptococcus
  EC50: 22.4 µM (active)

## CC(=O)NC(=S)c1c(N)n(Cc2ccccc2)c(=O)n(C)c1=O
[5]
  AC50: > 380 µM (inactive)
Protein RecA
  EC50: > 380 µM (inconclusive)

## CC(=O)c1c(C)c2c(n1CCN(C)C)CCCC2
[6]
  EC50: 2.74 µM (active)
